Patent US4659717A, “Dihydropyridines useful in the treatment of angina and stroke” (Eli Lilly and Company, priority 1985, dated 1987)

These molecules were tested on Dog Coronary Artery (assay: Dog coronary artery test: relaxation of KCl-contracted coronary artery rings). Conditions: Canis lupus familiaris, coronary artery rings contracted with 50 mM KCl, 37° C.; IC50 = 50% relaxation; mean values, probit analysis.
Type: cell-based
Description: Mongrel dogs of either sex and weighing 15 to 30 kg were anesthetized with pentobarbital (35 mg/kg). Each heart was quickly removed through a right thoracotomy and placed in Kreb's bicarbonate solution of the following composition (mM/L): NaCl, 118.2; KCl, 4.6; CaCl2.2H2 O, 1.6; KH2 PO4, 1.2; MgSO4.7H2 O, 1.2; NaHCO3, 24.8; and dextrose, 10.0. The medium was kept at room temperature and saturated with 95% O2 /5% CO2. The left anterior descending and circumflex coronary arteries were isolated and used either immediately or stored overnight at 5° C. Arteries were cut into rings approximately 2 to 3 mm wide, placed on 2 L-shaped hooks and mounted in a 10 ml organ bath by attaching one hook to a stationary glass rod and the other hook to a force-displacement transducer. Tissue medium consisted of Kreb's bicarbonate solution maintained at 37° C. and bubbled with 95 % O2 /5% CO2. Artery rings were equilibrated for 1-2 hours under a resting tension of 3 g. Tissue medium was then changed to one containing 50 mM KCl and 72.8 mM NaCl but otherwise identical to Kreb's bicarbonate solution. After tissues achieved a steady state contractile tension (1-2 hours) a given test agent was added to each bath and concentration-response curves determined. […] At the end of the concentration-response curve, tissue medium was changed to one identical to the 50 mM KCl buffer but containing 2.5 mM EGTA and no CaCl2.2H2 O to obtain complete relaxation of the tissue. Percent relaxation was then determined for each concentration and values producing 50% relaxation (IC50) were estimated using a probit analysis.

`COC(=O)C1=C(C)NC(C)=C(C(=O)OCCC#N)C1c1csc2ccccc12` (centres unmarked) [Example 35, 4-Benzo[b]thien-3-yl-1,4-dihydro-2,6-dimethyl-3,5-pyridinecarboxylic acid, 2-cyanoethyl methyl ester] and `COC(=O)C1=C(C)NC(C)=C(C(=O)OC(C)C)C1c1csc2ccccc12` (centres unmarked) [Example 38, 4-Benzo[b]thien-3-yl-1,4-dihydro-2,6-dimethyl-3,5-pyridinedicarboxylic acid, methyl 1-methylethyl ester] are the same in IC50: 251 nM for the first, 251 nM for the second.

Compared with `COCCOC(=O)C1=C(C)NC(C)=C(C(=O)OC(C)C)C1c1csc2ccncc12` (centres unmarked) [Example 37, 1,4-Dihydro-2,6-dimethyl-4-thieno[3,2-c]pyridin-3-yl-3,5-pyridinedicarboxylic acid, 2-methoxyethyl 1-methylethyl ester], `COCCOC(=O)C1=C(C)NC(C)=C(C(=O)OC(C)C)C1c1csc2ccccc12` (centres unmarked) [Example 39, 4-Benzo[b]thien-3-yl-1,4-dihydro-2,6-dimethyl-3,5-pyridinedicarboxylic acid, 2-methoxyethyl 1-methylethyl ester] is 5.4-fold higher in IC50: 166 nM for the first, 891 nM for the second. The first is the more potent here.

Compared with `CC[C@H](C)OC(=O)C1=C(C)NC(C)=C(C(=O)OC)C1c1csc2ccncc12` (stereo partly drawn) [Example 40, 1,4-Dihydro-2,6-dimethyl-4-thieno[3,2-c]pyridin-3-yl-3,5-pyridinedicarboxylic acid, methyl(S)-1-methylpropyl ester], `CCC(C)OC(=O)C1=C(C)NC(C)=C(C(=O)OC)[C@H]1c1csc2ccncc12` (stereo partly drawn) [Example 42, (R)-1,4-Dihydro-2,6-dimethyl-4-thieno[3,2-c]pyridin-3-yl-3,5-pyridinedicarboxylic acid, methyl 1-methylpropyl ester] is 2.5-fold higher in IC50: 33.1 nM for the first, 81.3 nM for the second.

Compared with `COC(=O)C1=C(C)NC(C)=C(C(=O)OC(C)C)C1c1csc2cnccc12` (centres unmarked) [Example 41, 1,4-Dihydro-2,6-dimethyl-4-thieno[2,3-c]pyridin-3-yl-3,5-pyridinedicarboxylic acid, monomethyl mono(1-methylethyl)ester], `COC(=O)C1=C(C)NC(C)=C(C(=O)OCC(C)C)C1c1csc2ccncc12` (centres unmarked) [Example 43, 1,4-Dihydro-2,6-dimethyl-4-thieno[3,2-c]pyridin-3-yl-3,5-pyridinedicarboxylic acid, methyl 2-methylpropyl ester] is 3.1-fold higher in IC50: 32.4 nM for the first, 100 nM for the second. The first is the more potent here.

Going from `COC(=O)C1=C(C)NC(C)=C(C(=O)OCC2CC2)C1c1csc2cnccc12` (centres unmarked) [Example 44, 1,4-Dihydro-2,6-dimethyl-4-thieno[2,3-c]pyridin-3-yl-3,5-pyridinedicarboxylic acid, cyclopropylmethyl methyl ester] to `COC(=O)C1=C(C)NC(C)=C(C(=O)OCC2CC2)C1c1csc2ccncc12` (centres unmarked) [Example 51, 1,4-Dihydro-2,6-dimethyl-4-thieno[3,2-c]pyridin-3-yl-3,5-pyridinedicarboxylic acid, cyclopropylmethyl methyl ester], the IC50 falls from 70.8 nM to 7.59 nM (9.3-fold). The second is the more potent here.

Compared with `COC(=O)C1=C(C)NC(C)=C(C(=O)OC(C)(C)C)C1c1csc2ccncc12` (centres unmarked) [Example 45, 1,4-Dihydro-2,6-dimethyl-4-thieno[3,2-c]pyridin-3-yl-3,5-pyridinedicarboxylic acid, methyl 1,1-dimethylethyl ester], `C#CCOC(=O)C1=C(C)NC(C)=C(C(=O)OC)C1c1csc2ccncc12` (centres unmarked) [Example 48, 1,4-Dihydro-2,6-dimethyl-4-thieno[3,2-c]pyridin-3-yl-3,5-pyridinedicarboxylic acid, methyl 2-propynyl ester] is 7.1-fold lower in IC50: 646 nM for the first, 91.2 nM for the second. The second is the more potent here.

Going from `COC(=O)C1=C(C)NC(C)=C(C(=O)OCC2CC2)C1c1csc2cccnc12` (centres unmarked) [Example 46, 1,4-Dihydro-2,6-dimethyl-4-thieno[3,2-b]pyridin-3-yl-3,5-pyridinedicarboxylic acid, cyclopropylmethyl methyl ester] to `C=CCOC(=O)C1=C(C)NC(C)=C(C(=O)OC)C1c1csc2ccncc12` (centres unmarked) [Example 50, 1,4-Dihydro-2,6-dimethyl-4-thieno[3,2-c]pyridin-3-yl-3,5-pyridinecarboxylic acid, methyl 2-propenyl ester], the IC50 falls from 83.2 nM to 40.7 nM (2-fold).

Compared with `COC(=O)C1=C(C)NC(C)=C(C(=O)OC(C)c2ccccc2)[C@@H]1c1csc2ccncc12` (stereo partly drawn) [Example 47, (R)-1,4-Dihydro-2,6-dimethyl-4-thieno[3,2-c]pyridin-3-yl-3,5-pyridinedicarboxylic acid, methyl 1-phenylethyl ester], `CCCCOC(=O)C1=C(C)NC(C)=C(C(=O)OCCCC)C1c1csc2ccncc12` [Example 53, 1,4-Dihydro-2,6-dimethyl-4-thieno[3,2-c]pyridin-3-yl-3,5-pyridinedicarboxylic acid, dibutyl ester] is 22-fold higher in IC50: 49 nM for the first, 1070 nM for the second. The first is the more potent here.

Molecule `CCOC(=O)C1=C(C)NC(C)=C(C(=O)OCC)C1c1cccc2sccc12` [Example 55, 4-(Benzo[b]thien-4-yl)-1,4-dihydro-2,6-dimethyl-3,5-pyridinedicarboxylic a cid, diethyl ester] has an IC50 of 151 nM.

Same assay, conditions: coronary artery rings contracted with 50 mM KCl, 37° C.; IC50 = 50% relaxation; mean values, probit analysis

First: CCC(C)OC(=O)C1=C(C)NC(C)=C(C(=O)OC)[C@@H]1c1csc2ccccc12 (stereo partly drawn) [Example 36, (S)-4-benzo[b]thien-3-yl-1,4-dihydro-2,6-dimethyl-3,5-pyridinedicarboxylicacid, methyl 1-methylpropyl ester]
Second: CCOC(=O)C1=C(C)NC(C)=C(C(=O)OCC)C1c1csc2ccncc12 [Example 52, 1,4-Dihydro-2,6-dimethyl-4-thieno[3,2-c]pyridin-3-yl-3,5-pyridinedicarboxylic acid, diethyl ester]
The “-log IC50” value of the first is lower: 5.7 for the first, 6.94 for the second.

With `CCOC(=O)C1=C(C)NC(C)=C(C(=O)OCC)C1c1nccc2ccsc12` [Example 54, 1,4-Dihydro-2,6-dimethyl-4-thieno[2,3-c]pyridin-7-yl-3,5-pyridinedicarboxylic acid, diethyl ester] the “-log IC50” value was 7.1.
